Data from publication PMC4150738 (Analytica chimica acta, 2014).
Where two headings read alike, the source gives them in different places.

Columns and labels:
[1] = Short-term stability in fortified plasma; format: physicochemical, human
[2] = for change of plasma concentration without the deconjugation step (hydrolysis): rat plasma after 0.5 mg kg-1 MDPV ip or sc, with vs without hydrolysis; for plasma concentration, Without hydrolysis / plasma concentration, Hydrolysis / plasma concentration range after intraperitoneal dosing / plasma concentration range after the subcutaneous dose: rat plasma; for plasma concentration, Without hydrolysis / plasma concentration, Hydrolysis: LOQ 0.25 μg L^−1; for plasma concentration, Hydrolysis: with hydrolysis; for plasma concentration range after intraperitoneal dosing: 0.5 mg kg^−1 MDPV intraperitoneal; for plasma concentration range after intraperitoneal dosing / plasma concentration range after the subcutaneous dose: samples 10-480 min after dosing; for plasma concentration range after the subcutaneous dose: 0.5 mg kg^−1 MDPV subcutaneous
monoamine transporter = details: in vitro transporter assays, similar to cocaine; ref 13 (Baumann et al.); cited from earlier work
[3] = ref 24 (Wang et al), cited from earlier work
[4] = cited from earlier work
[5] = 1,000 μg L^−1, room temp, 4°C and −20°C for 1 to 14 days; ref 29 (Johnson et al); cited from earlier work
[6] = ref 24 (Wang et al); cited from earlier work
[7] = High QC 750 μg L^−1, n=5, vs freshly fortified
[8] = Low QC 0.75 μg L^−1, n=5, vs freshly fortified
[9] = Medium QC 25 μg L^−1, n=5, vs freshly fortified
[10] = 0.5 mg kg-1 MDPV ip, 0 min (before dosing)
[11] = 0.5 mg kg-1 MDPV sc, 0 min (before dosing)

CCCC(C(=O)c1ccc(O)c(OC)c1)N1CCCC1 (centres unmarked) [4-OH-3-MeO-PV, 4-hydroxy-3-methoxypyrovalerone]
Stability (% difference) 3 freeze-thaw cycles [1, 7]: −0.5 % difference | Stability (% difference) 72h at 4°C [1, 7]: −1.5 % difference | Stability (% difference) 3 freeze-thaw cycles [1, 8]: 3.5 % difference | Stability (% difference) 72h at 4°C [1, 8]: 3.9 % difference | Stability (% difference) 3 freeze-thaw cycles [1, 9]: −0.5 % difference | Stability (% difference) 72h at 4°C [1, 9]: 6 % difference | change of plasma concentration without the deconjugation step (hydrolysis) [2]: greatly decreased | form present in rat plasma ([2]; rat plasma after MDPV, concluded from hydrolysis comparison): primarily present as the conjugated forms | plasma concentration, Without hydrolysis [2, 10]: <LOQ | plasma concentration, Hydrolysis ([2]; 0.5 mg kg-1 MDPV ip, 10 min): 9.3 ng/mL | plasma concentration, Without hydrolysis ([2]; 0.5 mg kg-1 MDPV ip, 10 min): 0.9 ng/mL | plasma concentration, Hydrolysis ([2]; 0.5 mg kg-1 MDPV ip, 20 min): 11.8 ng/mL | plasma concentration, Without hydrolysis ([2]; 0.5 mg kg-1 MDPV ip, 20 min): 0.7 ng/mL | plasma concentration, Hydrolysis ([2]; 0.5 mg kg-1 MDPV ip, 30 min): 12.3 ng/mL | plasma concentration, Without hydrolysis ([2]; 0.5 mg kg-1 MDPV ip, 30 min): 0.7 ng/mL | plasma concentration, Hydrolysis ([2]; 0.5 mg kg-1 MDPV ip, 60 min): 14.1 ng/mL | plasma concentration, Without hydrolysis ([2]; 0.5 mg kg-1 MDPV ip, 60 min): <LOQ | plasma concentration, Hydrolysis ([2]; 0.5 mg kg-1 MDPV ip, 120 min): 68.9 ng/mL | plasma concentration, Without hydrolysis ([2]; 0.5 mg kg-1 MDPV ip, 120 min): 0.5 ng/mL | plasma concentration, Hydrolysis ([2]; 0.5 mg kg-1 MDPV ip, 240 min): 84.7 ng/mL | plasma concentration, Without hydrolysis ([2]; 0.5 mg kg-1 MDPV ip, 240 min): 0.5 ng/mL | plasma concentration, Hydrolysis ([2]; 0.5 mg kg-1 MDPV ip, 480 min): 23.6 ng/mL | plasma concentration, Without hydrolysis ([2]; 0.5 mg kg-1 MDPV ip, 480 min): <LOQ | plasma concentration, Without hydrolysis [2, 11]: <LOQ | plasma concentration, Hydrolysis ([2]; 0.5 mg kg-1 MDPV sc, 10 min): 3.2 ng/mL | plasma concentration, Without hydrolysis ([2]; 0.5 mg kg-1 MDPV sc, 10 min): 1.1 ng/mL | plasma concentration, Hydrolysis ([2]; 0.5 mg kg-1 MDPV sc, 20 min): 6.1 ng/mL | plasma concentration, Without hydrolysis ([2]; 0.5 mg kg-1 MDPV sc, 20 min): 1.2 ng/mL | plasma concentration, Hydrolysis ([2]; 0.5 mg kg-1 MDPV sc, 30 min): 6.7 ng/mL | plasma concentration, Without hydrolysis ([2]; 0.5 mg kg-1 MDPV sc, 30 min): 1.1 ng/mL | plasma concentration, Hydrolysis ([2]; 0.5 mg kg-1 MDPV sc, 60 min): 11 ng/mL | plasma concentration, Without hydrolysis ([2]; 0.5 mg kg-1 MDPV sc, 60 min): 0.9 ng/mL | plasma concentration, Hydrolysis ([2]; 0.5 mg kg-1 MDPV sc, 120 min): 44.7 ng/mL | plasma concentration, Without hydrolysis ([2]; 0.5 mg kg-1 MDPV sc, 120 min): 0.7 ng/mL | plasma concentration, Hydrolysis ([2]; 0.5 mg kg-1 MDPV sc, 240 min): 54.4 ng/mL | plasma concentration, Without hydrolysis ([2]; 0.5 mg kg-1 MDPV sc, 240 min): 0.4 ng/mL | plasma concentration, Hydrolysis ([2]; 0.5 mg kg-1 MDPV sc, 480 min): 11 ng/mL | plasma concentration, Without hydrolysis ([2]; 0.5 mg kg-1 MDPV sc, 480 min): <LOQ | plasma concentration range after intraperitoneal dosing [2]: 9.3 to 84.7 ng/mL | plasma concentration range after the subcutaneous dose [2]: 3.2 to 54.4 ng/mL

CCCC(C(=O)c1ccc2c(c1)OCO2)N1CCCC1 (centres unmarked) [MDPV, 3,4-methylenedioxypyrovalerone, reference compound]
monoamine transporter blockade (monoamine transporter): potent monoamine transporter blocker | stability of MDPV in plasma, time stable ([3]; at room temperature): 27 h | stability of MDPV in plasma, time stable ([3]; at −20°C): 600 h | stability of MDPV in plasma, freeze-thaw cycles [3]: 3 freeze-thaw cycles | MDPV blood concentrations, human performance cases ([4]; 9 human performance cases, ref 26 (Marinetti et al.)): 6 to 368 µg/L | MDPV blood concentrations, postmortem cases ([4]; 23 postmortem cases, ref 26 (Marinetti et al.)): 10 to 640 µg/L | serum MDPV concentrations ([4]; Finnish drivers stopped for suspicion of driving under the influence of drugs, ref 25 (Kriikku et al.)): 20 to 8000 µg/L | MDPV concentrations in human plasma, in most cases [4]: below 1000 μg L^−1 | stability in fortified plasma [5]: stable | Stability (% difference) 3 freeze-thaw cycles [1, 7]: 1.5 % difference | Stability (% difference) 72h at 4°C [1, 7]: 3.5 % difference | Stability (% difference) 3 freeze-thaw cycles [1, 8]: 3.5 % difference | Stability (% difference) 72h at 4°C [1, 8]: 7.7 % difference | Stability (% difference) 3 freeze-thaw cycles [1, 9]: −1.1 % difference | Stability (% difference) 72h at 4°C [1, 9]: 2.2 % difference | concentration in plasma, horse-doping [6]: 5.8 ng/mL | change of plasma concentration without the deconjugation step (hydrolysis) [2]: did not change | plasma concentration, Without hydrolysis [2, 10]: <LOQ | plasma concentration, Hydrolysis ([2]; 0.5 mg kg-1 MDPV ip, 10 min): 8.0 ng/mL | plasma concentration, Without hydrolysis ([2]; 0.5 mg kg-1 MDPV ip, 10 min): 9.4 ng/mL | plasma concentration, Hydrolysis ([2]; 0.5 mg kg-1 MDPV ip, 20 min): 6.6 ng/mL | plasma concentration, Without hydrolysis ([2]; 0.5 mg kg-1 MDPV ip, 20 min): 7.2 ng/mL | plasma concentration, Hydrolysis ([2]; 0.5 mg kg-1 MDPV ip, 30 min): 7.6 ng/mL | plasma concentration, Without hydrolysis ([2]; 0.5 mg kg-1 MDPV ip, 30 min): 8.4 ng/mL | plasma concentration, Hydrolysis ([2]; 0.5 mg kg-1 MDPV ip, 60 min): 3.6 ng/mL | plasma concentration, Without hydrolysis ([2]; 0.5 mg kg-1 MDPV ip, 60 min): 2.9 ng/mL | plasma concentration, Hydrolysis ([2]; 0.5 mg kg-1 MDPV ip, 120 min): 1.8 ng/mL | plasma concentration, Without hydrolysis ([2]; 0.5 mg kg-1 MDPV ip, 120 min): 2.2 ng/mL | plasma concentration, Hydrolysis ([2]; 0.5 mg kg-1 MDPV ip, 240 min): 1.3 ng/mL | plasma concentration, Without hydrolysis ([2]; 0.5 mg kg-1 MDPV ip, 240 min): 0.6 ng/mL | plasma concentration, Hydrolysis ([2]; 0.5 mg kg-1 MDPV ip, 480 min): 0.9 ng/mL | plasma concentration, Without hydrolysis ([2]; 0.5 mg kg-1 MDPV ip, 480 min): 1.2 ng/mL | plasma concentration, Without hydrolysis [2, 11]: <LOQ | plasma concentration, Hydrolysis ([2]; 0.5 mg kg-1 MDPV sc, 10 min): 107.5 ng/mL | plasma concentration, Without hydrolysis ([2]; 0.5 mg kg-1 MDPV sc, 10 min): 120.1 ng/mL | plasma concentration, Hydrolysis ([2]; 0.5 mg kg-1 MDPV sc, 20 min): 82.1 ng/mL | plasma concentration, Without hydrolysis ([2]; 0.5 mg kg-1 MDPV sc, 20 min): 92.9 ng/mL | plasma concentration, Hydrolysis ([2]; 0.5 mg kg-1 MDPV sc, 30 min): 51.7 ng/mL | plasma concentration, Without hydrolysis ([2]; 0.5 mg kg-1 MDPV sc, 30 min): 56.6 ng/mL | plasma concentration, Hydrolysis ([2]; 0.5 mg kg-1 MDPV sc, 60 min): 38.4 ng/mL | plasma concentration, Without hydrolysis ([2]; 0.5 mg kg-1 MDPV sc, 60 min): 34 ng/mL | plasma concentration, Hydrolysis ([2]; 0.5 mg kg-1 MDPV sc, 120 min): 9.9 ng/mL | plasma concentration, Without hydrolysis ([2]; 0.5 mg kg-1 MDPV sc, 120 min): 1.5 ng/mL | plasma concentration, Hydrolysis ([2]; 0.5 mg kg-1 MDPV sc, 240 min): 4.8 ng/mL | plasma concentration, Without hydrolysis ([2]; 0.5 mg kg-1 MDPV sc, 240 min): 3.1 ng/mL | plasma concentration, Hydrolysis ([2]; 0.5 mg kg-1 MDPV sc, 480 min): 1.7 ng/mL | plasma concentration, Without hydrolysis ([2]; 0.5 mg kg-1 MDPV sc, 480 min): 1.4 ng/mL | plasma concentration range after intraperitoneal dosing [2]: 0.9 to 8.0 ng/mL | plasma concentration range after the subcutaneous dose [2]: 1.7 to 107.5 ng/mL
